Measurements: the supplement of paper PMC10307832

Compound: Cc1nc(NC(=O)N2CCC[C@H]2C(N)=O)sc1-c1ccnc(C(C)(C)C(F)(F)F)c1 [Alpelisib] + O=C(c1cc(Cc2n[nH]c(=O)c3ccccc23)ccc1F)N1CCN(C(=O)C2CC2)CC1 [Olaparib] (partner 8 µM)
Experiment: relative viability (nuclei count vs DMSO), 5 days (fraction); higher = more cells survive
Conditions: first compound 0.04 µM
How it was run: (§1)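 For relative viability, nuclei counts in treated wells were divided by those in vehicle wells. Lung cancer cell lines had been pin-tool dosed in 1536-well plates the day after seeding and cultured for 5 days, then fixed and stained in one step (final 0.05% Triton X-100, 1% formaldehyde, 1 ug/ml Hoechst) and imaged at 4×. Doses were one drug alone or a fixed anchor-drug dose plus five library-drug doses (not always all listed) in √10 steps, and values are duplicate-plate medians.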

Cell Line	relative viability
NCI-H1666	0.771
RERF-LC-KJ	0.878
NCI-H322M	0.804
201T	0.82
SK-MES-1	0.616
NCI-H441	0.549
HCC-78	0.694

Same assay, conditions: first compound 0.1265 µM

Cell Line	relative viability
NCI-H1666	0.774
RERF-LC-KJ	0.894
NCI-H322M	0.82
201T	0.81
SK-MES-1	0.556
NCI-H441	0.478
HCC-78	0.825

Same assay, conditions: first compound 0.4 µM

Cell Line	relative viability
NCI-H1666	0.816
RERF-LC-KJ	0.84
NCI-H322M	0.791
201T	0.859
SK-MES-1	0.786
NCI-H441	0.733
HCC-78	0.857

Same assay, conditions: first compound 1.265 µM

Cell Line	relative viability
NCI-H1666	0.704
RERF-LC-KJ	0.655
NCI-H322M	0.671
201T	0.774
SK-MES-1	0.622
NCI-H441	0.46
HCC-78	0.44

Same assay, conditions: first compound 4 µM

Cell Line	relative viability
NCI-H1666	0.688
RERF-LC-KJ	0.74
NCI-H322M	0.53
201T	0.679
SK-MES-1	0.544
NCI-H441	0.236
HCC-78	0.521

Compound: Cc1nc(NC(=O)N2CCC[C@H]2C(N)=O)sc1-c1ccnc(C(C)(C)C(F)(F)F)c1 [Alpelisib] + COc1cccc2cc(-c3nc([C@H]4CC[C@H](C(=O)O)CC4)n4ncnc(N)c34)[nH]c12 [OSI-027] (partner 0.5 µM)
Experiment: as above
Conditions: first compound 0.04 µM
How it was run: as §1

Cell Line	relative viability
NCI-H1666	0.837
RERF-LC-KJ	0.482
NCI-H322M	0.56
201T	0.811
SK-MES-1	0.57
NCI-H441	0.656
HCC-78	0.378

Same assay, conditions: first compound 0.1265 µM

Cell Line	relative viability
NCI-H1666	0.826
RERF-LC-KJ	0.547
NCI-H322M	0.527
201T	0.566
SK-MES-1	0.541
NCI-H441	0.64
HCC-78	0.306

Same assay, conditions: first compound 0.4 µM

Cell Line	relative viability
NCI-H1666	0.807
RERF-LC-KJ	0.507
NCI-H322M	0.515
201T	0.661
SK-MES-1	0.553
NCI-H441	0.643
HCC-78	0.324

Same assay, conditions: first compound 1.265 µM

Cell Line	relative viability
NCI-H1666	0.609
RERF-LC-KJ	0.393
NCI-H322M	0.36
201T	0.471
SK-MES-1	0.442
NCI-H441	0.296
HCC-78	0.335

Same assay, conditions: first compound 4 µM

Cell Line	relative viability
NCI-H1666	0.536
RERF-LC-KJ	0.347
NCI-H322M	0.41
201T	0.402
SK-MES-1	0.351
NCI-H441	0.305
HCC-78	0.318

Compound: CCCS(=O)(=O)Nc1ccc(F)c(C(=O)c2c[nH]c3ncc(-c4ccc(Cl)cc4)cc23)c1F [Vemurafenib] + CC1(C)CCC(c2ccc(Cl)cc2)=C(CN2CCN(c3ccc(C(=O)NS(=O)(=O)c4ccc(N[C@H](CCN5CCOCC5)CSc5ccccc5)c(S(=O)(=O)C(F)(F)F)c4)cc3)CC2)C1 [Navitoclax] (partner 0.5 µM)
Experiment: as above
Conditions: first compound 0.03162 µM
How it was run: as §1

Cell Line	relative viability
NCI-H1666	0.932
RERF-LC-KJ	1.05
NCI-H322M	1.09
201T	1.16
SK-MES-1	1.25
NCI-H441	0.798
HCC-78	0.818

Same assay, conditions: first compound 0.1 µM

Cell Line	relative viability
RERF-LC-KJ	1.04
201T	1.26
SK-MES-1	1.3
NCI-H441	0.614
HCC-78	0.608

Same assay, conditions: first compound 0.3162 µM

Cell Line	relative viability
NCI-H1666	1.06
RERF-LC-KJ	0.977
NCI-H322M	1.44
201T	1.2
SK-MES-1	1.27
HCC-78	1.13

Same assay, conditions: first compound 1 µM

Cell Line	relative viability
NCI-H1666	0.972
RERF-LC-KJ	1.29
NCI-H322M	1.1
201T	1.14
SK-MES-1	1.13
NCI-H441	0.735
HCC-78	0.656

Compound: COc1cccc2cc(-c3nc([C@H]4CC[C@H](C(=O)O)CC4)n4ncnc(N)c34)[nH]c12 [OSI-027] + CC(=O)c1c(C)c2cnc(Nc3ccc(N4CCNCC4)cn3)nc2n(C2CCCC2)c1=O [Palbociclib] (partner 0.5 µM)
Experiment: as above
Conditions: first compound 0.01 µM
How it was run: as §1

Cell Line	relative viability
NCI-H1666	0.691
RERF-LC-KJ	1.07
NCI-H322M	0.489
201T	0.354
SK-MES-1	0.294
NCI-H441	0.165
HCC-78	0.484

Same assay, conditions: first compound 0.03162 µM

Cell Line	relative viability
NCI-H1666	0.675
RERF-LC-KJ	0.957
NCI-H322M	0.436
201T	0.36
SK-MES-1	0.322
NCI-H441	0.205
HCC-78	0.452

Same assay, conditions: first compound 0.1 µM

Cell Line	relative viability
NCI-H1666	0.65
RERF-LC-KJ	0.99
NCI-H322M	0.478
201T	0.342
SK-MES-1	0.286
NCI-H441	0.178
HCC-78	0.483

Same assay, conditions: first compound 0.3162 µM

Cell Line	relative viability
NCI-H1666	0.577
RERF-LC-KJ	0.817
NCI-H322M	0.438
201T	0.368
SK-MES-1	0.275
NCI-H441	0.146
HCC-78	0.45

Same assay, conditions: first compound 1 µM

Cell Line	relative viability
NCI-H1666	0.671
RERF-LC-KJ	0.457
NCI-H322M	0.483
201T	0.38
SK-MES-1	0.274
NCI-H441	0.166
HCC-78	0.411
